According to patent publication US20210230213A1, “ARAMCHOL SALTS” (GALMED RESEARCH AND DEVELOPMENT LTD., priority 2013, published 2021):
Converted amounts (≈) assume the structure as drawn. Where a name gives a salt, the structure may show the parent alone. Read-outs that look alike come from different tables or passages of the source. Values belong to the compound of their own block, whether it stands above or below them.

Legend:
[1] = Dynamic Vapour Sorption (DVS); format: physicochemical
Description: The samples was weighed in a glass pan, typically 20-30 mg, and equilibrated at 0% relative humidity (RH). After the material had dried, the RH was increased with 10% per step for 1 hour per increment, ending at […].
The software used for data collection was DVSWin v3.01 No Video. Data analysis was performed using DVS Standard Analysis Suite v6.3.0 (Standard).
After completion of sorption cycle, the material was dried. XRPD was performed before and after DVS.

[2] = Fill weight of size 00 HPMC capsule; format: physicochemical; conditions: hard HPMC capsule size 00, filled as is without tapping
Text: Aramchol (free acid), and the three salts were filled as are, into hard HPMC (Hypromellose; Capsule size 00 (CapsCanada, ON, Canada) without taping, fill weight is presented in table 9.

[3] = In vivo permeability / PK after intrajejunal administration in cannulated rats (Example 7); set-up: species or system male Wistar rats; conditions: rat; for Cmax: 100 mg/kg (based on free acid) in PBS 30 mg/mL, plasma Aramchol (free acid); for Tmax: median
Description: An in vivo permeability study of Aramchol salts was performed in male Wistar rats cannulated in the jugular vein and in the jejunum. Intestinal cannulation was performed in order to bypass protonation of Aramchol salts in acidic gastric pH. Aramchol salts solubilized in PBS (30 mg/mL) were administered to rats intestine (jejunum) in a dose of 100 mg/kg (based on free acid), via a cannula inserted into the proximal side of the jejunum. A suspension of Aramchol free acid (in PBS, 30 mg/mL) was administered via the same route and was used as control. Blood samples were withdrawn via a cannula inserted into jugular vein at pre-determined time points (pre-dose, 1 hr, 2 hr, 4 hr, 8 hr, 12 hr, 24 hr post dose). Plasma concentrations of Aramchol (free acid) were measured using a liquid chromatography-tandem mass spectrometry (LC-MS-MS) method by Analyst Bioanalytical Laboratories, Israel. All PK parameters were calculated using non-compartmental analysis. Only those plasma concentrations equal to or greater than the lower limit of quantitation (LOQ) (48.66 ng/mL) were used in the analysis. Plasma concentrations <LOQ that occurred from pre-dose to the first concentration ≥LOQ were treated as 0. Actual sampling times were used for all pharmacokinetic analyses. The following PK parameters were calculated: maximum plasma concentration (Cmax), time to Cmax (Tmax), area under the plasma concentration-time curve from time of administration until the last plasma concentration (AUC0-4), AUC/dose, elimination half-life (t½). Cmax and Tmax were taken directly from the data. Area under the curve from zero to the final sample with a concentration ≥LOQ. AUC0-4 was calculated using the linear trapezoidal method.

[4] = Stability of Aramchol free acid; format: physicochemical; conditions: 6 months 40° C./75% RH; 12 months 25° C./60% RH; 30° C./65% RH
Description: For Aramchol free acid, 6 months stability data have been generated at 40° C./75% relative humidity and for 12 months at real time 25° C./60% relative humidity and also at the intermediate conditions of 30° C./65% relative humidity.

Bulk and tapped density = format: physicochemical
Text: Measurements of tapped and bulk densities are used to predict the flow properties and compressibility of powders. These two properties are important for manufacture of solid dosage formulations, such as tablets and capsules. Compounds with low values of tapped and bulk densities may be subject to difficulties in tablet compression, and therefore may require additional processing for improving flow properties. […] Therefore, to improve flow properties a wet granulation process is used prior to tablet compression.

in vivo = conditions: dog, in vivo
Description: Capsules containing 100 mg of Aramchol were dosed to dogs as either the free acid or the meglumine salt.
The complete data-set across all animals and time-points for each dose form (free acid or meglumine salt) were fit to single compartment PK models with first order rate of absorption Ka (h−1) and elimination parameterised by CL and V (rate of elimination=CL/V, h−1). For the meglumine salt group, the first dose data for M5 was removed.
Capsules containing 100 mg of Aramchol were dosed to dogs as either the free acid or the meglumine salt BID. […] A clinical study that investigated the plasma concentration of Aramchol after oral dosing of 300 mg BID at steady state was conducted in 16 healthy volunteers.

[5] = Twice daily administration for 10 days of Aramchol and Aramchol meglumine in humans (Example 9); format: in vivo; conditions: free acid 300 mg, meglumine salt 383 mg
Description: 300 mg aramchol free acid were administered to human subjects twice daily, and 383 mg aramchol meglumine salt were administered to human subjects twice daily, as detailed in FIG. 13.

[6] = Saturated solubility in buffer solutions and bio-relevant media at 37° C. (Example 6); format: physicochemical; conditions: for solubility at 24 h / solubility at 30 min: thermodynamic from solid
[7] = Clinical study, plasma Aramchol at steady state after 300 mg BID; format: in vivo, humans; conditions: human, po
[8] = Solubility of Aramchol (free acid) in aqueous media; format: physicochemical
physchem = conditions: 50 °C, organic solvent or mixture
[9] = Aqueous solubility at 20° C., shake-flask, stepwise water addition (Example 2); format: physicochemical; conditions: for solubility: water, 20 °C, thermodynamic from solid, 20° C.
Description: The Aramchol salts of the present invention were further assessed for their solubility in water. […] 5 mg of each salt was weighed. Water was added stepwise until a clear solution was obtained (Table 2, solubility in water). The pH of each solution was measured (Table 2, pH after solubility).

[10] = 100 mg/kg, mean ± standard error
[11] = water, Aramchol free acid and base 1:1, 50° C.
[12] = RH raised from 0% in 10% steps to 95% RH, stepwise, reversible
[13] = male, Wistar, plasma, 100 mg/kg, mean ± standard error
[14] = male, Wistar, plasma, 100 mg/kg, mean ± standard error, read-out: AUC 0-t
[15] = male, Wistar, plasma, 100 mg/kg, read-out: Tmax
[16] = male, Wistar, mean ± standard error, read-out: Cmax
[17] = Demi-Water (pH 7.8), 24 h, 37° C.
[18] = Phosphate buffer pH 7.0, 24 h, 37° C.
[19] = FaSSIF (pH 6.5), 30 min, 37° C.
[20] = FeSSIF (pH 5.0), 30 min, 37° C.

Compound: 2-diethylamino-ethanol
salt remains in solution after cooling to 20° C.: yes
Dissolved (50 in g in 1) at 50° C. (50° C.): Yes
Mass uptake (DVS) [1]: 12.1% (stepwise; reversible)

Compound: 3β-arachidylamido-7α,12α-dihydroxy-5β-cholan-24-oic acid lysine salt [L-Lysine]
fill weight of one 00 size capsule [2]: 0.33 gram
Cmax ([3]; mean ± standard error): 7294.2 ± 5463.0 (5) ng/mL
AUC(0-t) [3, 10]: 26460.3 ± 9415.5 (5) hr × ng/mL
AUC/dose [3, 10]: 270.0 ± 99.0 (5) hr × ng × kg/mL × mg
t1/2 [3, 10]: 5.2 ± 1.0 (5) hr
Tmax ([3]; 100 mg/kg): 2.0 (5) [2-4] hr
Dissolved (50 in g in 1) at 50° C. [11]: No
Mass uptake (DVS) [1, 12]: 23.1% (stepwise, reversible)

stability [4]: no significant changes to any parameters
Bulk density (Bulk and tapped density): 0.15 g/mL
Tapped density (Bulk and tapped density): 0.17 g/mL
fill weight of one 00 size capsule [2]: 0.15 gram
Half-life [3, 13]: 4.5 h
AUC(0-t) [3, 14]: 12.1 ± 3.63 µg·h/mL
Tmax [3, 15]: 4 h
Cmax [3, 16]: 1.36 ± 0.359 µg/mL
AUC/dose [3, 10]: 124.2 ± 38.9 (5) hr × ng × kg/mL × mg
AUC0-12 h/AUCinf (in vivo): 0.97
Ka (in vivo): 0.234 h⁻¹
V (in vivo): 16893
clearance (in vivo): 6.82 mL/min
AUC (in vivo; 100 mg): 901 µg·h/mL
AUC(0-inf) (in vivo; AUCinf D1): 241 µg·h/mL
AUC(0-inf) (in vivo; AUCinf from day 11 onwards): 1130 µg·h/mL
Half-life (in vivo; po, 100 mg, Half-life): 25.9 h
AUCss 0-12 h ([5]; BID for 10 days): 53 µg·h/mL
Cavg ([5]; BID for 10 days): 4.154 µg/mL
AUC ([5]; human, blood, BID): 53 µg·h/mL
solubility ([6]; Acetate buffer pH 4.5, 24 h, 37° C.): Not soluble
solubility [6, 17]: Not soluble
solubility ([6]; HCl buffer pH 1.2, 24 h, 37° C.): Not soluble
solubility [6, 18]: Not soluble
solubility ([6]; Saline pH 5.5, 24 h, 37° C.): Not soluble
solubility at 24 h ([6]; phosphate buffer, pH 6.5, 24 h): < 0.001 mg/mL
solubility at 30 min [6, 19]: 0.05 mg/mL (≈ 71.2 µM)
solubility at 24 h ([6]; FaSSIF (pH 6.5), 24 h, 37° C.): 0.13 mg/mL (≈ 185 µM)
solubility at 30 min [6, 20]: 0.66 mg/mL (≈ 940 µM)
solubility at 24 h ([6]; FeSSIF (pH 5.0), 24 h, 37° C.): 0.31 mg/mL (≈ 442 µM)
AUC [7]: 114 µg·h/mL
solubility ([8]; FeSSIF, pH 5, fessif, read-out: max solubility in FeSSIF): 0.66 mg/mL (≈ 940 µM)
solubility ([8]; aqueous buffer, buffer pH 6.0, read-out: solubility in buffer at pH 6.0): < 0.001 mg/mL
Compound: CCCCCCCCCCCCCCCCCCCC(=O)N[C@H]1CCC2(C)C(CC(O)C3C2C[C@H](O)C2(C)C(C(C)CCC(=O)O)CCC32)C1 (stereo in doubt) [Aramchol (free acid), 3β-arachidylamido-7α,12α-dihydroxy-5β-cholan-24-oic acid, reference compound]

Compound: CCCCCCCCCCCCCCCCCCCC(=O)NC1CCC2(C)C(C1)CC(O)C1C2CC(O)C2(C)C(C(C)CCC(=O)O)CCC12.N (stereo not drawn) [Ammonia]
Dissolved (50 in g in 1) at 50° C.: No
salt remains in solution after cooling to 20° C.: no
Mass uptake (DVS) [1]: 5.4% (stepwise; reversible)

Compound: c1ccc(CNCCNCc2ccccc2)cc1 [Benzathine]
Dissolved (50 in g in 1) at 50° C. [11]: No

Compound: CN(C)CCO [Deanol]
Dissolved (50 in g in 1) at 50° C. [11]: Yes
salt remains in solution after cooling to 20° C. (water, cooled to 20° C.): yes
Mass uptake (DVS) [1, 12]: 17.3% (stepwise; reversible)

Compound: CCNCC [Diethylamine]
Dissolved (50 in g in 1) at 50° C. [11]: Yes
salt remains in solution after cooling to 20° C. (water, cooled to 20° C.): no
Mass uptake (DVS) [1, 12]: 14.8% (stepwise; reversible)

Compound: NCCO [Ethanolamine]
Mass uptake (DVS) [1, 12]: 13.2% (stepwise; reversible)

solubility at 2 h (physchem): > 50 mg/mL
fill weight of one 00 size capsule [2]: 0.31 gram
Half-life [3, 13]: 6.5 ± 2.4 h
AUC(0-t) [3, 14]: 18.6 ± 2.28 µg·h/mL
Tmax [3, 15]: 2 h
Cmax [3, 16]: 2.25 ± 0.208 µg/mL
AUC/dose [3, 10]: 184.7 ± 22.7 (4) hr × ng × kg/mL × mg
Dissolved (50 in g in 1) at 50° C. [11]: No
solubility [6, 17]: Gel
solubility ([6]; Demi-Water (pH 7.8), 24 h, 37° C., listed as tromethamine salt): turned into gets
solubility [6, 19]: Gel
solubility ([6]; FaSSIF (pH 6.5), 24 h, 37° C.): Gel
solubility [6, 20]: Gel
solubility ([6]; FeSSIF (pH 5.0), 24 h, 37° C.): Gel
solubility ([6]; PBS pH 7.4, 24 h, 37° C.): Gel
solubility ([6]; Phosphate buffer pH 6.5, 30 min, 37° C.): Gel
solubility ([6]; Phosphate buffer pH 6.5, 24 h, 37° C.): Gel
solubility [6, 18]: Gel
solubility at 30 min ([6]; aqueous buffer, PBS pH 7.4, 30 min, 37° C.): 23 mg/mL
solubility at 30 min ([6]; aqueous buffer, Phosphate buffer pH 7.0, 30 min, 37° C.): 29.4 mg/mL
solubility at 30 min ([6]; saline or isotonic, Saline pH 5.5, 30 min, 37° C.): 0.03 mg/mL
solubility at 30 min ([6]; simulated gastric fluid, HCl buffer pH 1.2, 30 min, 37° C.): 0.02 mg/mL
solubility at 24 h ([6]; simulated gastric fluid, HCl buffer pH 1.2, 24 h, 37° C.): 0.29 mg/mL
solubility at 30 min ([6]; Demi-Water (pH 7.8), 30 min, 37° C.): 45 mg/mL
Mass uptake (DVS) [1, 12]: 9.4% (stepwise; reversible)
pH of solution ([9]; after solubility test in water, XRPD: Crystalline): 8
solubility ([9]; XRPD: Crystalline): 32 to 95 mg/mL
solubility ([9]; XRPD: Poorly crystalline): < 11 mg/mL
Compound: CCCCCCCCCCCCCCCCCCCC(=O)N[C@H]1CC[C@@]2(C)[C@@H](C1)C[C@@H](O)[C@@H]1[C@@H]2C[C@H](O)[C@]2(C)[C@@H]([C@H](C)CCC(=O)O)CC[C@@H]12 [Tromethamine, 3β-arachidylamido-7α,12α-dihydroxy-5β-cholan-24-oic acid tromethamine salt]

Compound: Choline
Dissolved (50 in g in 1) at 50° C.: Yes
salt remains in solution after cooling to 20° C.: yes

Compound: Diethanolamine
Dissolved (50 in g in 1) at 50° C. [11]: Yes
salt remains in solution after cooling to 20° C. (water, cooled to 20° C.): yes
Mass uptake (DVS) [1, 12]: 6.9% (stepwise; reversible)

Compound: L-Arginine
Dissolved (50 in g in 1) at 50° C. [11]: Yes
salt remains in solution after cooling to 20° C. (water, cooled to 20° C.): no
